{
  "source": "PubChem BioAssay AID330",
  "about": "(DTP/NCI, 2004)",
  "tested_on": "P388 leukemia ip, CD2F1 mice, survival T/C",
  "assay": "NCI In Vivo Anticancer Drug Screen. Data for tumor model P388 Leukemia (intraperitoneal) in CD2F1 (CDF1) mice",
  "conditions": "endpoint: median survival time, higher = longer survival",
  "method_in_brief": "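Mice carrying the transplanted tumor received test compound or vehicle. Survival was recorded in each group, and the value is the treated-group measurement divided by that of the vehicle-treated control group.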",
  "key": {"[1]": {"conditions": "dose: 12.5 mg/kg/injection, schedule: Q01DX009 (ip), vehicle: saline"}, "[2]": {"conditions": "dose: 25.0 mg/kg/injection, schedule: Q01DX009 (ip), vehicle: saline"}, "[3]": {"conditions": "dose: 50.0 mg/kg/injection, schedule: Q01DX009 (ip), vehicle: saline"}, "[4]": {"conditions": "dose: 100.0 mg/kg/injection, schedule: Q01DX009 (ip), vehicle: saline with Tween-80"}, "[5]": {"conditions": "dose: 25.0 mg/kg/injection, schedule: Q01DX009 (ip), vehicle: saline with Tween-80"}},
  "note": "“And” between values parts separate entries of the source, which are not always exact repeats. Identical values can stand only once. Toxic doses and inconclusive results are not listed.",
  "data": [
    {"compound": "Nc1cc(I)c2cccnc2c1O", "values": [
      {"measurement": "T/C", "setting": "dose: 6.25 mg/kg/injection, schedule: Q01DX009 (ip), vehicle: saline", "result": "119 % of control"},
      {"measurement": "T/C", "setting": "[1]", "result": "115 % of control"},
      {"measurement": "T/C", "setting": "dose: 16.0 mg/kg/injection, schedule: Q01DX009 (ip), vehicle: saline", "result": "98 % of control"},
      {"measurement": "T/C", "setting": "[2]", "result": "92 % of control and 98 % of control"},
      {"measurement": "T/C", "setting": "dose: 35.0 mg/kg/injection, schedule: Q01DX009 (ip), vehicle: saline", "result": "107 % of control"},
      {"measurement": "T/C", "setting": "[3]", "result": "119 % of control"}
    ]},
    {"compound": "COc1ccc2ccccc2c1/C=N/N1CCCCC1", "values": [
      {"measurement": "T/C", "setting": "[4]", "result": "100 % of control"},
      {"measurement": "T/C", "setting": "dose: 200.0 mg/kg/injection, schedule: Q01DX009 (ip), vehicle: saline with Tween-80", "result": "104 % of control"},
      {"measurement": "T/C", "setting": "dose: 400.0 mg/kg/injection, schedule: Q01DX009 (ip), vehicle: saline with Tween-80", "result": "95 % of control"}
    ]},
    {"compound": "Cc1ncn2ncnc2c1C", "values": [
      {"measurement": "T/C", "setting": "dose: 25.0 mg/kg/injection, schedule: Q04DX003 (ip), vehicle: saline with Tween-80", "result": "103 % of control"},
      {"measurement": "T/C", "setting": "dose: 50.0 mg/kg/injection, schedule: Q04DX003 (ip), vehicle: saline with Tween-80", "result": "104 % of control"},
      {"measurement": "T/C", "setting": "dose: 100.0 mg/kg/injection, schedule: Q04DX003 (ip), vehicle: saline with Tween-80", "result": "101 % of control and 93 % of control"}
    ]},
    {"compound": "O=C(O)c1ccccc1[Se](=O)(=O)O", "values": [
      {"measurement": "T/C", "setting": "[3]", "result": "98 % of control"},
      {"measurement": "T/C", "setting": "dose: 100.0 mg/kg/injection, schedule: Q01DX009 (ip), vehicle: saline", "result": "100 % of control"},
      {"measurement": "T/C", "setting": "dose: 200.0 mg/kg/injection, schedule: Q01DX009 (ip), vehicle: saline", "result": "112 % of control"}
    ]},
    {"compound": "Cc1cccc(NCc2ccccn2)n1", "values": [
      {"measurement": "T/C", "setting": "dose: 50.0 mg/kg/injection, schedule: Q01DX005 (ip), vehicle: saline with Tween-80", "result": "103 % of control"},
      {"measurement": "T/C", "setting": "dose: 100.0 mg/kg/injection, schedule: Q01DX005 (ip), vehicle: saline with Tween-80", "result": "103 % of control"}
    ]},
    {"compound": "CN1NC(c2ccccc2)=C(C#N)C(=O)CC1c1ccc(Cl)cc1", "note": "(stereo not drawn)", "values": [
      {"measurement": "T/C", "setting": "dose: 3.75 mg/kg/injection, schedule: Q01DX005 (ip), vehicle: saline with Tween-80", "result": "117 % of control"},
      {"measurement": "T/C", "setting": "dose: 7.5 mg/kg/injection, schedule: Q01DX005 (ip), vehicle: saline with Tween-80", "result": "100 % of control and 101 % of control and 113 % of control"}
    ]},
    {"compound": "CC(C)CC1CC(=O)C(=O)C(CC(C)C)C1", "note": "(stereo not drawn)", "values": [
      {"measurement": "T/C", "setting": "dose: 50.0 mg/kg/injection, schedule: Q01DX005 (ip), vehicle: Klucel (hydroxypropylcellulose) (HPC)", "result": "95 % of control"},
      {"measurement": "T/C", "setting": "dose: 100.0 mg/kg/injection, schedule: Q01DX005 (ip), vehicle: Klucel (hydroxypropylcellulose) (HPC)", "result": "97 % of control"},
      {"measurement": "T/C", "setting": "dose: 200.0 mg/kg/injection, schedule: Q01DX005 (ip), vehicle: Klucel (hydroxypropylcellulose) (HPC)", "result": "110 % of control"}
    ]},
    {"compound": "CCOC(CCC(CO)CO)OCC", "values": [
      {"measurement": "T/C", "setting": "dose: 50.0 mg/kg/injection, schedule: Q01DX009 (ip), vehicle: suspension in saline", "result": "108 % of control"},
      {"measurement": "T/C", "setting": "dose: 100.0 mg/kg/injection, schedule: Q01DX009 (ip), vehicle: suspension in saline", "result": "112 % of control"},
      {"measurement": "T/C", "setting": "dose: 200.0 mg/kg/injection, schedule: Q01DX009 (ip), vehicle: suspension in saline", "result": "96 % of control"}
    ]},
    {"compound": "CCCCP(=O)(CCCC)CCCC.CCCCP(=O)(CCCC)CCCC.CCCCP(=O)(CCCC)CCCC.CCCCP(=O)(CCCC)CCCC.[Fe+3].[O-][Cl+3]([O-])([O-])O", "values": [
      {"measurement": "T/C", "setting": "dose: 50.0 mg/kg/injection, schedule: Q01DX009 (ip), vehicle: saline + Tween-80 + alcohol", "result": "112 % of control"},
      {"measurement": "T/C", "setting": "dose: 100.0 mg/kg/injection, schedule: Q01DX009 (ip), vehicle: saline + Tween-80 + alcohol", "result": "93 % of control"},
      {"measurement": "T/C", "setting": "dose: 200.0 mg/kg/injection, schedule: Q01DX009 (ip), vehicle: saline + Tween-80 + alcohol", "result": "89 % of control"}
    ]},
    {"compound": "Cc1cnc(/C=N\\NC(N)=S)c2cccc(N)c12", "values": [
      {"measurement": "T/C", "setting": "dose: 1.57 mg/kg/injection, schedule: Q01DX009 (ip), vehicle: saline with Tween-80", "result": "120 % of control"},
      {"measurement": "T/C", "setting": "dose: 3.12 mg/kg/injection, schedule: Q01DX009 (ip), vehicle: saline with Tween-80", "result": "103 % of control"},
      {"measurement": "T/C", "setting": "dose: 4.32 mg/kg/injection, schedule: Q01DX005 (ip), vehicle: clinical formulation", "result": "121 % of control"},
      {"measurement": "T/C", "setting": "dose: 6.25 mg/kg/injection, schedule: Q01DX009 (ip), vehicle: water", "result": "170 % of control"},
      {"measurement": "T/C", "setting": "dose: 12.0 mg/kg/injection, schedule: Q01DX005 (ip), vehicle: clinical formulation", "result": "152 % of control"},
      {"measurement": "T/C", "setting": "dose: 12.5 mg/kg/injection, schedule: Q01DX009 (ip), vehicle: Klucel (hydroxypropylcellulose) (HPC)", "result": "162 % of control and 163 % of control"},
      {"measurement": "T/C", "setting": "dose: 12.5 mg/kg/injection, schedule: Q01DX009 (ip), vehicle: other", "result": "188 % of control"},
      {"measurement": "T/C", "setting": "dose: 12.5 mg/kg/injection, schedule: Q01DX009 (ip), vehicle: saline with Tween-80", "result": "168 % of control"},
      {"measurement": "T/C", "setting": "[1]", "result": "150 % of control"},
      {"measurement": "T/C", "setting": "dose: 12.5 mg/kg/injection, schedule: Q01DX009 (ip), vehicle: water", "result": "189 % of control"},
      {"measurement": "T/C", "setting": "dose: 20.0 mg/kg/injection, schedule: Q01DX005 (ip), vehicle: clinical formulation", "result": "155 % of control"},
      {"measurement": "T/C", "setting": "dose: 25.0 mg/kg/injection, schedule: Q01DX009 (ip), vehicle: Klucel (hydroxypropylcellulose) (HPC)", "result": "179 % of control and 193 % of control"},
      {"measurement": "T/C", "setting": "dose: 25.0 mg/kg/injection, schedule: Q01DX009 (ip), vehicle: other", "result": "97 % of control"},
      {"measurement": "T/C", "setting": "[5]", "result": "184 % of control"},
      {"measurement": "T/C", "setting": "[2]", "result": "172 % of control"},
      {"measurement": "T/C", "setting": "dose: 25.0 mg/kg/injection, schedule: Q01DX009 (ip), vehicle: water", "result": "218 % of control"},
      {"measurement": "T/C", "setting": "dose: 50.0 mg/kg/injection, schedule: Q01DX009 (ip), vehicle: Klucel (hydroxypropylcellulose) (HPC)", "result": "109 % of control"}
    ]},
    {"compound": "CC(=NC(C)C)Nc1ccc(Cl)cc1", "values": [
      {"measurement": "T/C", "setting": "[5]", "result": "107 % of control"},
      {"measurement": "T/C", "setting": "dose: 50.0 mg/kg/injection, schedule: Q01DX009 (ip), vehicle: saline with Tween-80", "result": "105 % of control"},
      {"measurement": "T/C", "setting": "[4]", "result": "92 % of control"}
    ]}
  ]
}
